Where only a bound is given, the exact number is not on record here.

The test system of this test is HRV14. The experiment in a line: Inhibitory activity against human rhinovirus infection and replication (quantitative real-time PCR). The following applies: Human rhinovirus sp., MRC5; 100 nmol/L test compound; MRC-5 cells infected with HRV14 at MOI=0.2; 48 hours; viral load normalized to 18s rRNA; read-out: Percent Inhibition. The class given is cell-based. As to the method: Evaluation of inhibitory activity against human rhinovirus infection and replication (by quantitative real-time PCR)
A required amount of a test compound was weighed off and dissolved in dimethyl sulfoxide (DMSO) to yield a 10 mmol/L stock solution. Next, the stock solution was diluted with a medium for viral infection (minimum essential medium (MEM) supplemented with 2% fetal bovine serum, 5% Tryptose phosphate broth, and 30 mmol/L MgCl2) to prepare 100 nmol/L and 1000 nmol/L of test compound solutions. MRC-5 (human fetal lung fibroblast: ATCC) was suspended at a density of 30000 cells/mL in cell culture medium (MEM supplemented with 10% fetal bovine serum), and 625 μL of the suspension per well was seeded into a 24-well cell culture plate and cultured at 37° C. in 5% CO2. After 72 hours, it was confirmed that the plate had become 80% confluent. The plate was washed with 625 μL of phosphate-buffered physiological saline (Ca/Mg-free; PBS-) once, and 625 μL of the test compound solution prepared just before use was immediately added to the plate. After 30 minutes, the medium was removed followed by addition of 187.5 μL of the test compound solution that had been prepared such that the cells were infected with HRV14 (ATCC) at multiplicity of infection (MOI)=0.2. The cells were then cultured at 35° C. in 5% CO2. After additional 2 hours, 625 μL of the test compound solution prepared just before use was added, and the cells were cultured at 35° C. in 5% CO2. After 48 hours, the cells were washed with 625 μL of PBS- once, and total RNA was extracted from the cells using RNeasy (R) plus kit (Qiagen) according to the manufacturer's instruction. Subsequently, cDNA was synthesized using High-Capacity cDNA Reverse Transcription Kit (Thermo Fisher Scientific). Finally, quantitative real-time PCR was performed in 7500 Fast Real-time PCR system (Life technologies) to measure HRV14 and 18s rRNA. The measurement protocol consisted of the initial denaturation phase at 95° C. for 20 seconds followed by 40 cycles of the denaturation step at 95° C. for 3 seconds and the annealing/elongation step at 60° C. for 30 seconds. The primers used were HRV14 forward primer set forth in SEQ ID NO: 1 and HRV14 reverse primer set forth in SEQ ID NO: 2, and the probe is set forth in SEQ ID NO: 3.
18s rRNA was measured using Eukaryotic 18S rRNA Endogenous Control (Applied Biosystems). According to Equation 1, 18s ribosomal RNA was used as an internal standard to normalize the viral load of HRV14: Viral load of HRV14=The amount of HRV14 in virus-infected cells/the amount of 18s rRNA in virus-infected cells Equation 1
Inhibitory activity of test compounds was calculated as a percent inhibition (%) according to Equation 2: Percent inhibition (%)=[the viral load of HRV in virus-infected cells in the absence of the test compound −the viral load of HRV in virus-infected cells in the presence of the test compound]/[the viral load of HRV in virus-infected cells in the absence of the test compound]×100 Equation 2
The results of using 100 nmol/L test compound solutions were shown in the tables below according to Examples. In the tables, percent inhibition was expressed as follows: percent inhibition >80%: +++, 80%≥percent inhibition >50%: ++, and 50%≥percent inhibition:+.
With `COc1ccc(-c2c(C)nc3sc(C(C)(C)C)cn23)cc1S(=O)(=O)N[C@H]1CC[C@@H](O)CC1` [Example 1-49], the inhibition at 0.1 µM is greater than 80%. As to `COc1ccc(-c2c(C)nc3sc(C(C)(C)OC)cn23)cc1S(=O)(=O)Nc1ccc(F)cc1` [Example 1-50], the inhibition at 0.1 µM was greater than 80%. As for `COc1ccc(-c2c(C)nc3sc(C)cn23)cc1S(=O)(=O)Nc1ccc(F)cc1` [Example 1-51], the inhibition at 0.1 µM lay in the range of 50 to 80%. Next, `COc1ccc(-c2c(C)nc3sccn23)cc1S(=O)(=O)Nc1ccc(F)cc1` [Example 1-52]: no more than 50%. As for `COc1ccc(-c2c(C)nc3sc(C(O)(C4CC4)C4CC4)nn23)cc1S(=O)(=O)CC(C)(C)O` [Example 1-53], the figure is greater than 80%.

With `COc1ccc(-c2c(C)nc3sc(C(C)(C)O)cn23)cc1S(=O)(=O)N[C@H]1CC[C@@H](OC)CC1` [Example 2-2], the inhibition at 0.1 µM is no more than 50%. Next, `COc1c(F)cc(-c2c(C)nc3sc(C(C)(C)C)cn23)cc1S(=O)(=O)N[C@H]1CC[C@@H](O)CC1` [Example 2-3]: greater than 80%; `COc1ccc(-c2c(C)nc3sc(C(C)(C)O)cn23)cc1S(=O)(=O)NC(C)(C)CO` [Example 2-4]: no more than 50%. In the case of `Cc1nc2sc(C(C)(C)O)cn2c1-c1ccc(N(C)C)c(S(=O)(=O)N[C@H]2CC[C@@H](O)CC2)c1` [Example 2-5], the inhibition at 0.1 µM was no more than 50%.

As to `Cc1nc2sc(C(C)(C)O)nn2c1-c1ccc(C#N)c(S(=O)(=O)N[C@H]2CC[C@H](O)CC2)c1` [Example 2-6], the inhibition at 0.1 µM was no more than 50%. On to `Cc1nc2sc(C(C)(C)O)nn2c1-c1ccc(OC(F)(F)F)c(S(=O)(=O)N[C@H]2CC[C@H](O)CC2)c1` [Example 2-7], for which the inhibition at 0.1 µM was greater than 80%. Next, `COc1c(F)cc(-c2c(C)nc3sc(C(C)(C)O)nn23)cc1S(=O)(=O)N[C@H]1CC[C@H](O)CC1` [Example 2-8]: greater than 80%.

On to `Cc1nc2sc(C(C)(C)O)nn2c1-c1ccc(C(F)(F)F)c(S(=O)(=O)N(C)[C@H]2CC[C@H](O)CC2)c1` [Example 2-9], for which the inhibition at 0.1 µM was greater than 80%. With `Cc1nc2sc(C(C)(C)O)nn2c1-c1ccc(C(F)(F)F)c(S(=O)(=O)NC23CCC(O)(CC2)CC3)c1` [Example 2-10], the inhibition at 0.1 µM was greater than 80%.

`Cc1nc2sc(C(C)(C)O)nn2c1-c1cnc(C(F)(F)F)c(S(=O)(=O)N[C@H]2CC[C@H](O)CC2)c1` [Example 2-11]: the inhibition at 0.1 µM was no more than 50%. With `COc1ccc(-c2c(C)nc3sc(C(C)(C)O)nn23)cc1S(=O)(=O)CCO` [Example 2-12], the inhibition at 0.1 µM was no more than 50%. As to `COc1ccc(-c2c(C)nc3sc(C(C)(C)O)nn23)cc1S(C)(=O)=O` [Example 2-13], the inhibition at 0.1 µM was no more than 50%. Regarding `Cc1nc2sc(C(C)(C)O)nn2c1-c1ccc(C(F)(F)F)c(S(=O)(=O)CCO)c1` [Example 2-14], the inhibition at 0.1 µM is no more than 50%.

With `Cc1nc2sc(C3CC3)nn2c1-c1ccc(C(F)(F)F)c(S(=O)(=O)CCO)c1` [Example 2-15], the inhibition at 0.1 µM fell in the range of 50 to 80%.

Take `Cc1nc2sc(C(C)(C)O)nn2c1-c1ccc(C(F)(F)F)c(S(=O)(=O)N[C@H]2C[C@H](O)C2)c1` [Example 2-16]: the inhibition at 0.1 µM is greater than 80%.

In the case of `Cc1nc2sc(C(C)(C)O)nn2c1-c1ccc(C(F)(F)F)c(S(=O)(=O)N[C@H]2C[C@@H](O)C2)c1` [Example 2-17], the inhibition at 0.1 µM is greater than 80%. Turning to `Cc1nc2sc(C(C)(C)O)nn2c1-c1ccc(C(F)(F)F)c(S(=O)(=O)N[C@]2(C)C[C@@H](O)C2)c1` [Example 2-18], the inhibition at 0.1 µM is greater than 80%. As for `Cc1nc2sc(C(C)(C)O)nn2c1-c1ccc(C(F)(F)F)c(S(=O)(=O)N[C@]2(C)C[C@H](O)C2)c1` [Example 2-19], the figure is greater than 80%; as for `Cc1nc2sc(C(C)(C)O)nn2c1-c1ccc(C(F)(F)F)c(S(=O)(=O)NC2(CO)CC2)c1` [Example 2-20], greater than 80%; as for `Cc1nc2sc(C(C)(C)O)nn2c1-c1ccc(C(F)(F)F)c(S(=O)(=O)NCC(C)(C)O)c1` [Example 2-21], greater than 80%. Next, `Cc1nc2sc(C(C)(C)O)nn2c1-c1ccc(C(F)(F)F)c(S(=O)(=O)NC2COC2)c1` [Example 2-22]: greater than 80%; `Cc1nc2sc(C(C)(C)O)nn2c1-c1ccc(C(F)(F)F)c(S(=O)(=O)CC2CC(O)C2)c1` (stereo not shown) [Example 2-23]: 50 to 80%. For the compound `CC(=O)N1CC(NS(=O)(=O)c2cc(-c3c(C)nc4sc(C(C)(C)O)nn34)ccc2C(F)(F)F)C1` [Example 2-24], the inhibition at 0.1 µM is no more than 50%.

As to `COc1ccc(-c2c(C)nc3sc(C(C)(C)O)nn23)cc1S(=O)(=O)C(C)C` [Example 2-25], the inhibition at 0.1 µM is no more than 50%. As for `Cc1nc2sc(C(C)(C)O)nn2c1-c1ccc(C(F)(F)F)c(S(=O)(=O)CC2(C)COC2)c1` [Example 2-26], the figure is greater than 80%; as for `Cc1nc2sc(C(C)(C)O)nn2c1-c1ccc(C(F)(F)F)c(S(=O)(=O)CC(C)(C)O)c1` [Example 2-27], greater than 80%. As for `Cc1nc2sc(C(C)(C)O)nn2c1-c1ccc(C(F)(F)F)c(S(=O)(=O)C2COC2)c1` [Example 2-28], the figure is greater than 80%; as for `COc1c(F)cc(-c2c(C)nc3sc(C(C)(C)O)nn23)cc1S(=O)(=O)NC(C)(C)CO` [Example 2-29], greater than 80%; as for `Cc1nc2sc(C(C)(C)O)nn2c1-c1ccc(C(F)(F)F)c(S(=O)(=O)NCC2(O)COC2)c1` [Example 2-30], greater than 80%. Next, `Cc1nc2sc(C(C)(C)O)nn2c1-c1ccc(C(F)(F)F)c(S(=O)(=O)NC2(CO)COC2)c1` [Example 2-31]: greater than 80%; `Cc1nc2sc(C(C)(C)O)nn2c1-c1ccc(C(F)(F)F)c(S(=O)(=O)NC2(CO)CC(F)(F)C2)c1` [Example 2-32]: greater than 80%. Regarding `Cc1nc2sc(C(C)(C)O)nn2c1-c1ccc(C(F)(F)F)c(S(=O)(=O)NCC(O)C(F)(F)F)c1` (stereo not shown) [Example 2-33], the inhibition at 0.1 µM was greater than 80%. Next, `COc1ccc(-c2c(C)nc3sc(C(C)(C)O)nn23)cc1S(=O)(=O)C(C)(C)C` [Example 2-34]: greater than 80%; `Cc1nc2sc(C(C)(C)O)nn2c1-c1ccc(C(F)(F)F)c(S(=O)(=O)CC2(CO)COC2)c1` [Example 2-35]: 50 to 80%; `Cc1nc2sc(C(C)(C)O)nn2c1-c1ccc(C(F)(F)F)c(S(=O)(=O)C2CN(C(=O)OC(C)(C)C)C2)c1` [Example 2-36]: greater than 80%. As for `Cc1nc2sc(C(C)(C)O)nn2c1-c1ccc(C(F)F)c(S(=O)(=O)CC(C)(C)O)c1` [Example 2-37], the inhibition at 0.1 µM was 50 to 80%.

As for `Cc1nc2sc(C(C)(C)O)nn2c1-c1cccc(S(=O)(=O)CC(C)(C)O)c1` [Example 2-38], the inhibition at 0.1 µM was no more than 50%. Next, `Cc1ccc(-c2c(C)nc3sc(C(C)(C)O)nn23)cc1S(=O)(=O)CC(C)(C)O` [Example 2-39]: greater than 80%; `COc1ccc(-c2c(C)nc3sc(C(C)(C)O)nn23)cc1S(=O)(=O)CC1(O)COC1` [Example 2-40]: no more than 50%; `COc1ccc(-c2c(C)nc3sc(C(C)(C)O)nn23)cc1S(=O)(=O)CC1(C)COC1` [Example 2-41]: 50 to 80%.

Take `COc1ccc(-c2c(C)nc3sc(C(C)(C)O)nn23)cc1S(=O)(=O)CCC(C)(C)O` [Example 2-42]: the inhibition at 0.1 µM was no more than 50%. For the compound `COc1c(F)cc(-c2c(C)nc3sc(C(C)(C)O)nn23)cc1S(=O)(=O)CC(C)(C)O` [Example 2-43], the inhibition at 0.1 µM is 50 to 80%.

Turning to `Cc1nc2sc(C(C)(C)O)nn2c1-c1ccc(C(F)(F)F)c(S(=O)(=O)C2CC(F)(F)C2)c1` [Example 2-44], the inhibition at 0.1 µM was greater than 80%. As for `Cc1nc2sc(C(C)(C)O)nn2c1-c1ccc(C(F)(F)F)c(S(=O)(=O)CCC(C)(C)O)c1` [Example 2-45], the figure is no more than 50%.

As a reminder, the inhibition is how much of the control response was suppressed.

The values are drawn from patent publication US11952387B2, “Bicyclic heteroaromatic ring derivative” (priority 2018, dated 2024).
